Legend:
HepG2-2.2.15 cells = assay: Cell viability of HepG2-2.2.15 cells (dye uptake assay); format: cell-based; conditions: peptide 10 micrograms per ml
Protocol: (§1) HepG2-2.2.15 cells were plated in 96-well microtiter plates. After 16-24 hours the confluent monolayer of HepG2-2.2.15 cells was washed and the medium was replaced with complete medium containing test peptide—10 micrograms per ml—in duplicate. Lamivudine (3TC) was used as the positive control, while media alone was added to the cells as a negative control (virus control). Three days later the culture medium was replaced with fresh medium containing the peptide. Six days following the initial administration of the peptide, the cell culture supernatants was collected, treated with pronase and DNAse and then used in a real-time quantitative TaqMan PCR assay. The PCR-amplified HBV DNA was detected in real-time by monitoring increases in fluorescence signals that result from the exonucleolytic degradation of a quenched fluorescence probe molecule that hybridizes to the mplified HBV DNA. For each PCR amplification, a standard curve was simultaneously generated using dilutions of purified HBV DNA. Antiviral activity was calculated from the reduction in HBV DNA levels (% virus control). A novel dye uptake assay was then employed to measure cell viability, which is used to calculate toxicity (% cell control).

HIV-1IIIB = assay: HIV-1 antiviral assay (CPE reduction) in CEM-SS cells, MTS readout; conditions: for antiviral activity of positive control compounds (in words): assay validity statement; for % CPE reduction in HIV-1 infected CEM-SS cells: peptide 10 micrograms per ml, 6 days post-infection, MTS
MRC-5 cells = assay: in vitro; format: cell-based; conditions: human, 6 days
HCMV strain AD169 = assay: HCMV plaque reduction assay in MRC-5 cells; conditions: for % plaque reduction: HCMV in MRC-5 cells, peptide 10 micrograms per ml, 7-10 days
[1] = test system: hepatitis B virus (HBV) ayw strain; assay: HBV replication assay in HepG2-2.2.15 cells (TaqMan PCR of secreted HBV DNA); format: cell-based; conditions: peptide 10 micrograms per ml; six days; HBV DNA in supernatant
Text: HepG2-2.2.15 is a stable cell line containing the hepatitis B virus (HBV) ayw strain genome (ATCC Cat. No. CRL-11997). Antiviral compounds blocking any late step of viral replication such as transcription, translation, pregenome encapsidation, reverse transcription, particle assembly and release can be identified and characterized using this cell line. In this assay, an active compound will reduce the production of secreted HBV from cells, measured by utilizing real time quantitative PCR (TaqMan) assay to directly and accurately measure HBV DNA copies.
HepG2-2.2.15 cells were plated in 96-well microtiter plates. After 16-24 hours the confluent monolayer of HepG2-2.2.15 cells was washed and the medium was replaced with complete medium containing test peptide—10 micrograms per ml—in duplicate. […] Six days following the initial administration of the peptide, the cell culture supernatants was collected, treated with pronase and DNAse and then used in a real-time quantitative TaqMan PCR assay. The PCR-amplified HBV DNA was detected in real-time by monitoring increases in fluorescence signals that result from the exonucleolytic degradation of a quenched fluorescence probe molecule that hybridizes to the mplified HBV DNA. […] Antiviral activity was calculated from the reduction in HBV DNA levels (% virus control). […]

[2] = Cell viability of HepG2-2.2.15 cells (dye uptake assay); format: cell-based; conditions: human, peptide 10 micrograms per ml
Protocol: as §1

in vitro [3] = format: cell-based; conditions: human, MRC-5 cells
Pseudomonas aeruginosa = format: cell-based; conditions: 5 micrograms per ml
Streptococcus pneumoniae = format: cell-based; conditions: 5 micrograms per ml
A549 cells [4] = assay: Propidium iodide cell cycle assay; format: cell-based, Human; conditions: 24 hours, peptide 10 micrograms per ml, FACS
Text: Human A549 cells (carcinomic human alveolar basal epithelial cells) were utilized in the experiments employing the Propidium iodide cell cycle assay. The eukaryotic cell cycle is a series of events that take place in a cell leading to its replication. The regulation of the cell cycle involves steps crucial to the cell, including detecting and repairing genetic damage, and provision of various checks to prevent uncontrolled cell division. The molecular events that control the cell cycle are ordered and directional; that is, each process occurs in a sequential fashion.
Propidium iodide is an intercalating agent and a fluorescent molecule that can be used to stain DNA. Cells were incubated for 24 hours with test peptide—10 micrograms per ml—or left untreated. After that cells were trypsinized, suspended in medium+10% FCS, centrifuged (1000 rpm, 5 min), and the cell pellet resuspended in PBS (1 ml). The cells were pipetted into 2.5 ml absolute EtOH (final concentration approx. 70%) and incubated on ice for 15 min. Thereafter, cells were pelleted at 1500 rpm for 5 min and resuspended in Propidium iodide solution in PBS. After incubation for 40 min at 37° C., cells were analyzed in the FACS.

[5] = test system: Human Peripheral Blood Mononuclear Cells (PBMC); assay: T cell proliferation assay (PHA, 3H-thymidine); format: cell-based; conditions: peptide 10 micrograms per ml
Protocol: (§2) Human Peripheral Blood Mononuclear Cells (PBMC) were obtained from normal human donors. The T cell proliferation was induced by stimulation of the cells with the T cell mitogen phytohemagglutinin (PHA), either in the absence (positive proliferation control), or in the presence of test peptide—10 micrograms per ml—to examine their effects on the T cell proliferating response. 10^5/well PBMC were plated in 96-well microtiter plates and assayed in duplicate with the peptide. Cell cultures were incubated at 37° C. for 3 days in a 5% CO2 incubator and were thereafter pulsed with 1microCi/well ^3H-thymidine for additional 12 hours of culture. At the end of incubation time, the plates were harvested and the cells counted by liquid scintillation for the incorporation of ^3H-thymidine as a measure of T cell proliferation.

[6] = test system: Human Peripheral Blood Mononuclear Cells (PBMC); assay: B cell proliferation assay (SAC plus Interleukin-2, 3H-thymidine); format: cell-based; conditions: peptide 10 micrograms per ml
Protocol: as §2, with “The B” for “The T”, “the B” for “the T”, “mitogen Staphylococcus aureus Cowans I (SAC) plus Interleukin-2,” for “mitogen phytohemagglutinin (PHA),”, “cell” for “cell proliferating”, “of B” for “of T”

A549 cells [7] = assay: Apoptosis induction assay (Annexin-5); format: cell-based, Human; conditions: 24 hours, peptide 10 micrograms per ml
Text: Human A549 cells (carcinomic human alveolar basal epithelial cells) were utilized in the experiments employing the Annexin-5 apoptosis assay. Annexin-5 is a member of a highly conserved protein family that binds acidic phospholipids in a calcium-dependent manner. […] Phosphatidylserine is translocated from the inner side of the plasma membrane to the outer layer when cells undergo death by apoptosis or cell necrosis and serves as a signal by which cell destined for death are recognized by phagocytes. Test peptide—10 micrograms per ml—were exposed for 24 hours to the A549 cells before they were analyzed for signs of apoptosis.

A549 cells [8] = assay: Apoptosis prevention assay (C2 ceramide, Annexin-5); format: cell-based, Human; conditions: 30 min pretreatment, peptide 10 micrograms per ml
Text: Human A549 cells (carcinomic human alveolar basal epithelial cells) were utilized in the experiments employing the Annexin-5 apoptosis assay. Annexin-5 is a member of a highly conserved protein family that binds acidic phospholipids in a calcium-dependent manner. […] Phosphatidylserine is translocated from the inner side of the plasma membrane to the outer layer when cells undergo death by apoptosis or cell necrosis and serves as a signal by which cell destined for death are recognized by phagocytes. A549 cells were pretreated for 30 min with test peptide—10 micrograms per ml—followed by the exposure to C2 ceramide. Ceramide mediates cell apoptosis through the activation of the mitogen activating protein kinase (MAPK) and the stress activated kinase (JNK/SAPK). C2 ceramide is a synthetic, membrane soluble analog of ceramide.

spleen cells = assay: Th1/Th2 cytokine profiling assay (Ovalbumin restimulated spleen cells, CBA kit); format: cell-based, Balb/c mice; conditions: peptide 10 micrograms per ml; Ovalbumin restimulation; 72 hours
Text: The Balb/c mice (originated in 1923, it is a popular strain and is used in many different research disciplines. Also classified as an inbred from the production of 20 or more successive brother-sister matings, the Balb/c mouse is albino and small in size) were immunized on Days 1, 15, and 29 with Ovalbumin (Ovalbumin is the main protein found in egg white, commonly used to stimulate an immunological reaction in test animals) in PBS (5 micrograms/injection). On day 50, spleens of the mice were harvested (3 weeks after last boost with Ovalbumin). […] Thereafter, additional Ovalbumin was added to the cells at 10 micrograms/ml for in vitro restimulation of the cells. 72 hours later, cell supernatants were harvested and assayed using the Becton Dickinson Mouse Th1/Th2 Cytokine CBA Kit. This kit can be used to measure Interleukin-2 (IL-2), Interleukin-4 (IL-4), Interleukin-5 (IL-5), Interferon-γ (IFN-γ), and Tumor Necrosis Factor-α (TNF-α) protein levels in a single sample. The kit performance has been optimized for analysis of physiologically relevant concentrations (pg/ml levels) of specific cytokine proteins in tissue culture supernatants and serum samples.

[9] = test system: macrophages prepared from PBMC; assay: TNF alpha production assay (LPS-stimulated macrophages, ELISA); format: cell-based, Human; conditions: peptide 10 micrograms per ml, lipopolysaccharide 200 ng/ml, overnight
Protocol: Human Peripheral Blood Mononuclear Cells (PBMC) were obtained from normal human donors. The macrophages were prepared by adherence of PBMC to the plastic wells of the plates. […] Not stimulated macrophages served as negative background control.
After overnight incubation, supernatants from the control and LPS-stimulated cultures were harvested and assayed for TNF alpha production employing a TNF alpha specific ELISA.

[10] = test system: Primary Human endothelial cells (HUVEC); assay: Endothelial cell migration assay; format: cell-based; conditions: peptide 10 micrograms per ml, 22 hours
HUVEC = assay: Endothelial tube formation assay; format: cell-based, Human; conditions: peptide 10 micrograms per ml, 20 hours
Text: […] control wes vehicle only. […] Raw data were expressed as average tubule lenghs in pixels±standard deviation.

MRSA = conditions: 5 micrograms per ml
in vitro [11] = conditions: human, CEM-SS cells
RAW 264.7 cells = assay: Phagocytosis assay (Fluorescein-labeled Escherichia coli); conditions: peptide 10 micrograms per ml, flow cytometry

Nc1ccn([C@@H]2CS[C@H](CO)O2)c(=O)n1 [3TC, Lamivudine, reference compound]
% Cell viability (HepG2-2.2.15 cells): 95.8%

Cc1cn([C@H]2C[C@H](N=[N+]=[N-])[C@@H](CO)O2)c(=O)[nH]c1=O [AZT, zidovudine]
antiviral activity of positive control compounds (in words) (HIV-1IIIB): expected levels of antiviral activity
% CPE reduction in HIV-1 infected CEM-SS cells (HIV-1IIIB): 99%

Nc1nc(O)c2ncn(COC(CO)CO)c2n1 [Ganciclovir]
% Cell viability (MRC-5 cells): 100%
% plaque reduction (HCMV strain AD169): 100%
antiviral activity of positive control compound (in words) (HCMV strain AD169; assay validity statement): expected levels of antiviral activity

CC(C)(C)NC(=O)[C@@H]1CN(Cc2cccnc2)CCN1C[C@@H](O)C[C@@H](Cc1ccccc1)C(=O)N[C@H]1c2ccccc2C[C@H]1O [Indinavir, indinavir]
antiviral activity of positive control compounds (in words) (HIV-1IIIB): expected levels of antiviral activity
% CPE reduction in HIV-1 infected CEM-SS cells (HIV-1IIIB): 100%

CC[C@H](C)[C@H](NC(=O)[C@H](CCC(=O)O)NC(=O)[C@H](CO)NC(=O)[C@@H](NC(=O)[C@@H](N)CO)C(C)C)C(=O)N[C@@H](CCC(N)=O)C(=O)N[C@@H](CC(C)C)C(=O)N[C@@H](CCSC)C(=O)N[C@@H](Cc1cnc[nH]1)C(=O)N[C@@H](CC(N)=O)C(=O)N[C@@H](CC(C)C)C(=O)NCC(=O)N[C@@H](CCCCN)C(=O)N[C@@H](Cc1cnc[nH]1)C(=O)N[C@@H](CC(C)C)C(=O)N[C@@H](CC(N)=O)C(=O)N[C@@H](CO)C(=O)N[C@@H](CCSC)C(=O)N[C@@H](CCC(=O)O)C(=O)N[C@@H](CCCN=C(N)N)C(=O)N[C@H](C(=O)N[C@@H](CCC(=O)O)C(=O)N[C@@H](Cc1c[nH]c2ccccc12)C(=O)N[C@@H](CC(C)C)C(=O)N[C@@H](CCCN=C(N)N)C(=O)N[C@@H](CCCCN)C(=O)N[C@@H](CCCCN)C(=O)N[C@@H](CC(C)C)C(=O)N[C@@H](CCC(N)=O)C(=O)N[C@@H](CC(=O)O)C(=O)N[C@H](C(=O)N[C@@H](Cc1cnc[nH]1)C(=O)N[C@@H](CC(N)=O)C(=O)N[C@@H](Cc1ccccc1)C(=O)O)C(C)C)C(C)C [pTH (1-34)]
% inhibition of HBV replication in HEP G2 cells [1]: 0.0%
viability at 144 h, 10 micrograms per ml [2]: 100%
viability at 144 h (in vitro [3]): 100%
% inhibition (Pseudomonas aeruginosa): 0.0%
% inhibition (Streptococcus pneumoniae): 0.0%
Cell cycle analysis G0/G1 (A549 cells [4]): 59.1
Cell cycle analysis G2/M (A549 cells [4]): 7.5
Cell cycle analysis S (A549 cells [4]): 34.4
% of PHA induced control [5]: 110.2%
% of SAC/IL2 induced control [6]: 106.0%
% of induction (A549 cells [7]): 1.1%
% prevention of ceramide induced apoptosis (A549 cells [8]): 23.85%
IFNγ spleen cells; TH1 response (% of control) (spleen cells): 68.6 % of control
IL-2 spleen cells (% of control) (spleen cells): 180.4 % of control
IL-4 spleen cells; TH2 response (% of control) (spleen cells): 135.2 % of control
IL-5 spleen cells; TH2 response (% of control) (spleen cells): 85.9 % of control
TNF-a spleen cells; TH1 response (% of control) (spleen cells): 114.1 % of control
% of LPS induction [9]: 117.1%
% inhibition of migration [10]: −4.0%
% inhibition of tube formation (HUVEC): 28.0%
% inhibition (MRSA): 0.0%
viability at 10 micrograms per ml (in vitro [11]): 99.4%
% plaque reduction (HCMV strain AD169): 0.0%
% of control phagocytosis (RAW 264.7 cells): 102.9%
% CPE reduction in HIV-1 infected CEM-SS cells (HIV-1IIIB): 18.1%
